Assay results taken from patent publication US20230287389A1, “A METHOD FOR GENERATING NEW MUTATION IN ORGANISM AND USE THEREOF” (Qingdao Kingagroot Chemical Compound Co., Ltd., priority 2019, published 2023).

Key:
[1] = system: T1 generation OsACCase2 W2038L edited seedlings; assay: Resistance test of T1 generation OsACCase2 W2038L edited seedlings to ACCase inhibitor herbicides; type: in vivo, Oryza sativa; conditions: for Resistance of OsACCase2 W2038L mutant strain: field concentrations
Protocol: After the propagation of the TO strain containing the W2038L mutation, the T1 generation mutant seedlings were tested for herbicide resistance with quizalofop-p and haloxyfop-p in field concentrations.

Arabidopsis thaliana = assay: Selection of Arabidopsis thaliana seedlings on imazapic medium; type: in vivo
Protocol: After the seeds of the T1 strain were harvested from single plant, the seeds of different strains of two vectors were selected and spread on the imazapic selection medium (MS medium+0.24 μg/mL imazapic) to perform selection, and the positive seedlings were transplanted to the soil one week later and subjected to molecular detection, in which the method was the same as step 5.

[2] = system: T1 generation OsALS W548 site and OsSWEET14 double-site edited seedlings; assay: Resistance test of T1 generation OsALS W548L edited seedlings to ALS inhibitor herbicides; type: in vivo, Oryza sativa; conditions: for Resistance of OsALS W548L mutant strain: field concentrations
Protocol: After the propagation of TO strains in which the occurrence of OsALS W548L mutation was detected, the T1 generation mutant seedling strains were tested for herbicide resistance with pyroxsulam, imazapic, nicosulfuron and flucarbazone-Na at field concentrations.

C[C@@H](Oc1ccc(Oc2cnc3cc(Cl)ccc3n2)cc1)C(=O)O [quizalofop-p]
Resistance of W2038L edited strains QY367-5-10 and QY367-5-21 ([1]; 5 g/mu active ingredient of quizalofop-p): developed resistance | Resistance of OsACCase2 W2038L mutant strain [1]: significantly resistant

C[C@@H](Oc1ccc(Oc2ncc(C(F)(F)F)cc2Cl)cc1)C(=O)O [Haloxyfop-p]
Resistance of W2038L edited strains QY367-7-12 and QY367-7-18 ([1]; 5 g/mu active ingredient of Haloxyfop-p): developed resistance | Resistance of OsACCase2 W2038L mutant strain [1]: significantly resistant

Cc1cnc(C2=NC(=O)C(C)(C(C)C)N2)c(C(=O)O)c1 (stereo not drawn) [imazapic]
Response of W574M edited T1 plant to imazapic treatment (Arabidopsis thaliana; Example 3): showed resistance | Growth of wild-type Col-0 on imazapic resistant medium (Arabidopsis thaliana; MS medium + 0.24 μg/mL imazapic): could not grow | Growth of positive plants of the mutant strains on imazapic resistant medium (Arabidopsis thaliana; MS medium + 0.24 μg/mL imazapic, T2): could grow normally | Resistance of W548L edited strain QY360-7-11 ([2]; 7 g/mu active ingredient of imazapic): developed resistance | Resistance of OsALS W548L mutant strain [2]: significant resistance

COc1nn(C(=O)[N-]S(=O)(=O)c2ccccc2OC(F)(F)F)c(=O)n1C.[Na+] [flucarbazone-Na]
Resistance of W548L edited strain QY360-7-9 ([2]; 2 g/mu active ingredient of flucarbazone-Na): developed resistance | Resistance of OsALS W548L mutant strain [2]: significant resistance

COc1cc(OC)nc(NC(=O)NS(=O)(=O)c2ncccc2C(=O)N(C)C)n1 [nicosulfuron]
Resistance of W548L edited strain QY360-7-11 ([2]; 4 g/mu active ingredient of nicosulfuron): developed resistance | Resistance of OsALS W548L mutant strain [2]: significant resistance

COc1cc(OC)n2nc(NS(=O)(=O)c3c(C(F)(F)F)ccnc3OC)nc2n1 [pyroxsulam]
Resistance of W548L edited strains QY360-7-2 and QY360-7-11 ([2]; 2 g/mu active ingredient of pyroxsulam): developed resistance | Resistance of OsALS W548L mutant strain [2]: significant resistance
